# Measurements reported in PubChem BioAssay AID1053137 (Broad Institute, 2014).
# Experiments:
# [1] = system: HepG2 PCSK9 mRNA, qRT-PCR, overnight; experiment: PCSK9 mRNA reduction in HepG2 cells, late-stage follow-up, mechanism study for TRIB1 upregulator project, cell-based, RT-qPCR, cherry-pick (AID 1053137)
# [2] = as above; conditions: HepG2 PCSK9 mRNA, qRT-PCR, overnight; measured here: maximal PCSK9 expression inhibition; stronger effect = higher value
SMILES,AC50 [1] [nM],inhibition [2] [%]
CN1C(=O)c2cc(NC(=O)c3ccc(C(F)(F)F)cc3)ccc2OC[C@@H]2O[C@H](CC(=O)NC3Cc4ccccc4C3)CC[C@@H]21,110,85
CN1C(=O)c2cc(NC(=O)c3ccc(C(F)(F)F)cc3)ccc2OC[C@@H]2O[C@@H](CC(=O)NC3Cc4ccccc4C3)CC[C@@H]21,870,87
